This note sets out measurements from ChEMBL document CHEMBL1147660, “Discovery of SCH446211 (SCH6): a new ketoamide inhibitor of the HCV NS3 serine protease and HCV subgenomic RNA replication” (J Med Chem, 2006).

One series deals with NS3 (Hepatitis C virus, UniProt A3EZJ3). Nature of the series: Binding affinity to HCV NS3 serine protease. Details: species or system Hepacivirus hominis.
The next series has as its system Hepatitis C virus. Put plainly: Inhibition of HCV replicon. In kind it is functional, Hepacivirus hominis.
A short description of series [1]: Selectivity for HCV NS3 serine protease over HNE.
Series [2] in a line: Cmax in rat at 10 mg/kg, sc. The format is ADME, organism-based. More on the design: dose 10 mg/kg, route subcutaneous. As to conditions: in vivo.
A short description of series [3]: Clearance in rat. The format is ADME, organism-based. The note with it: in vivo.
A short description of series [4]: Oral bioavailability in monkey at 1 mg/kg, sc. In kind it is ADME, organism-based, Macaca mulatta. As to conditions: rhesus monkey, in vivo, subcutaneous.
Series [5] in a line: AUC in monkey at 1 mg/kg, iv. The format is ADME, organism-based, Macaca mulatta. More on the design: dose 1 mg/kg, route intravenous. The note with it: rhesus monkey, plasma.
Series [6] in a line: AUC in rat at 5 mg/kg, iv. Details: dose 5 mg/kg, route intravenous. In kind it is ADME, organism-based. As to conditions: plasma.
Series [7] in a line: AUC in rat at 10 mg/kg, sc. In kind it is ADME, organism-based. The note with it: plasma. More on the design: dose 10 mg/kg, route subcutaneous.
The nature of series [8]: Clearance in monkey. In kind it is ADME, organism-based, Macaca mulatta. As to conditions: rhesus monkey, in vivo.
Series [9] can be described thus: Oral bioavailability in rat at 10 mg/kg, po. In kind it is ADME, organism-based. The note with it: in vivo.
Series [10] is described as follows: Cmax in monkey at 1 mg/kg, sc. The format is ADME, organism-based, Macaca mulatta. More on the design: dose 1 mg/kg, route subcutaneous. The note with it: rhesus monkey, in vivo.
The nature of series [11]: AUC in rat at 10 mg/kg, po. The format is ADME, organism-based. The note with it: plasma. Details: dose 10 mg/kg, route oral.
Series [12] is described as follows: Oral bioavailability in monkey at 3 mg/kg, po. The note with it: rhesus monkey, in vivo. In kind it is ADME, organism-based, Macaca mulatta.
The nature of series [13]: Oral bioavailability in rat at 10 mg/kg, sc. In kind it is ADME, organism-based. The note with it: in vivo, subcutaneous.
Series [14] is described as follows: Cmax in monkey at 3 mg/kg, po. In kind it is ADME, organism-based, Macaca mulatta. More on the design: dose 3 mg/kg, route oral. The note with it: rhesus monkey, in vivo.
Series [15] is described as follows: Cmax in rat at 10 mg/kg, po. The note with it: in vivo. More on the design: dose 10 mg/kg, route oral. The format is ADME, organism-based.
Series [16] in a line: AUC in monkey at 1 mg/kg, sc. In kind it is ADME, organism-based, Macaca mulatta. As to conditions: rhesus monkey, plasma. Details: dose 1 mg/kg, route subcutaneous.
The nature of series [17]: AUC in monkey at 3 mg/kg, po. The format is ADME, organism-based, Macaca mulatta. More on the design: dose 3 mg/kg, route oral. The note with it: rhesus monkey, plasma.
The nature of series [18]: Half life in monkey at 1 mg/kg, iv. The format is ADME, organism-based, Macaca mulatta. More on the design: dose 1 mg/kg, route intravenous. The note with it: rhesus monkey, in vivo.
The nature of series [19]: Half life in rat at 5 mg/kg, iv. As to conditions: in vivo. The format is ADME, organism-based. Details: dose 5 mg/kg, route intravenous.

Numbered stars: 1 amine (or outer) side, 2 acyl side, 3 side chain; on linkers, the order of the positions; unused ones are H or OH. Square brackets hold non-standard residues; d marks the D form. Peptide text beside a SMILES is read from it. * marks the point of attachment. Pro(3R,4S-CMe2) = CC1(C)[C@@H]2[C@@H](C(=O)O)NC[C@@H]21; Pro(4,4-S(CH2)3S) = O=C(O)[C@@H]1CC2(CN1)SCCCS2; Pro(4,4-SCH2CH2S) = O=C(O)[C@@H]1CC2(CN1)SCCS2; X4 = O=C(C(=O)[*:2])C(CCC(F)(F)F)N[*:1]; Pro(4,4-Me2) = CC1(C)CN[C@H](C(=O)O)C1; Pro(4R-Me) = C[C@H]1CN[C@H](C(=O)O)C1; Isobutyloxycarbonyl = CC(C)COC(=O)*; X1 = O=C(C(=O)[*:2])C(CC1CC1)N[*:1]; X3 = CCCCC(N[*:1])C(=O)C(=O)[*:2]; Hyp = O=C(O)[C@@H]1C[C@@H](O)CN1; X2 = CCCC(N[*:1])C(=O)C(=O)[*:2]; Chg = N[C@H](C(=O)O)C1CCCCC1; Phg = N[C@H](C(=O)O)c1ccccc1; Tle = CC(C)(C)[C@H](N)C(=O)O; Boc = CC(C)(C)OC(=O)*; tBu = CC(C)(C)*

Chain of NS3 (A3EZJ3 whole entry): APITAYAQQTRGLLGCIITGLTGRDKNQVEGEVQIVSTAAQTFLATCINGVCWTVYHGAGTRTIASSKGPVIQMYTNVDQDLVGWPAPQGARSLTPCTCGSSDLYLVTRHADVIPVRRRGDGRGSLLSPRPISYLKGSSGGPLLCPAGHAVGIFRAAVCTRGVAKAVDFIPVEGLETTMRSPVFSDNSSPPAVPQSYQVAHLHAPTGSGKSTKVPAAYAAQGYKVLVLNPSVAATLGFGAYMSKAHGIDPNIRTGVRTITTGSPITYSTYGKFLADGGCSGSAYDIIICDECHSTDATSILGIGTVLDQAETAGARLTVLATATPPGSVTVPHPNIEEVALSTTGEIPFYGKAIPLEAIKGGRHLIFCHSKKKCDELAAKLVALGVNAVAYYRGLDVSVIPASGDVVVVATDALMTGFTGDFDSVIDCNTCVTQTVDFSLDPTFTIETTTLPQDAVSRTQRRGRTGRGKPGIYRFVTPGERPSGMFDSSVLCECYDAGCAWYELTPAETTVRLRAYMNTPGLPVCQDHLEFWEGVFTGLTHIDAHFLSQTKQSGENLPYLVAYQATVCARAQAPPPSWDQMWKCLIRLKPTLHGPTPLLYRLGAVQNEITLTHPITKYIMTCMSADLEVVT

As a reminder, the Ki is the equilibrium dissociation constant of an inhibitor or competing ligand from its target. On NS3, `CCCC(NC(=O)[C@@H]1CC2(CN1C(=O)[C@@H](NC(=O)OCC(C)C)C1CCCCC1)SCCCS2)C(=O)C(=O)NCC(=O)N[C@H](C(=O)N(C)C)c1ccccc1` (some centres undefined) (Isobutyloxycarbonyl-[Chg][Pro(4,4-S(CH2)3S)][X2]G[Phg]-NMe2) returned an inhibitory constant (Ki) of 28 nM.

In general, IC90 refers to the concentration at which the effect reaches the 90% level. On to `CCCC(NC(=O)[C@@H]1C[C@@H](OC(C)(C)C)CN1C(=O)[C@@H](NC(=O)OCC(C)C)C(C)(C)C)C(=O)C(=O)NCC(=O)N[C@H](C(=O)N(C)C)c1ccccc1` (some centres undefined) (Isobutyloxycarbonyl-[Tle][Hyp](tBu)[X2]G[Phg]-NMe2), for which, at NS3, the Ki is 19 nM. Further, in the series with Hepatitis C virus, the 90% effect level (IC90) was put at 2000 nM.

In turn, `CCCC(NC(=O)[C@@H]1C[C@@H](C)CN1C(=O)[C@@H](NC(=O)OCC(C)C)C(C)(C)C)C(=O)C(=O)NCC(=O)N[C@H](C(=O)N(C)C)c1ccccc1` (stereo partly drawn) (Isobutyloxycarbonyl-[Tle][Pro(4R-Me)][X2]G[Phg]-NMe2) gave an inhibition constant (Ki) at NS3 of 140 nM.

`CCCC(NC(=O)[C@@H]1CC2(CN1C(=O)[C@@H](NC(=O)OCC(C)C)C1CCCCC1)SCCS2)C(=O)C(=O)NCC(=O)N[C@H](C(=O)N(C)C)c1ccccc1` (some centres undefined) (Isobutyloxycarbonyl-[Chg][Pro(4,4-SCH2CH2S)][X2]G[Phg]-NMe2): the Ki at NS3 worked out at 26 nM.

At NS3, `CCCC(NC(=O)[C@@H]1C[C@@H](SC(C)(C)C)CN1C(=O)[C@@H](NC(=O)OCC(C)C)C(C)(C)C)C(=O)C(=O)NCC(=O)N[C@H](C(=O)N(C)C)c1ccccc1` (some centres undefined) registered a Ki of 120 nM.

As for `CCCC(NC(=O)[C@@H]1CC2(CCCC2)CN1C(=O)[C@@H](NC(=O)OCC(C)C)C1CCCCC1)C(=O)C(=O)NCC(=O)N[C@H](C(=O)N(C)C)c1ccccc1` (some centres undefined), at NS3, the inhibitory constant (Ki) was found to be 26 nM.

For `CCCC(NC(=O)[C@@H]1[C@@H]2[C@H](CN1C(=O)[C@@H](NC(=O)OCC(C)C)C(C)(C)C)C2(C)C)C(=O)C(=O)NCC(=O)N[C@H](C(=O)N(C)C)c1ccccc1` (stereo partly drawn) (Isobutyloxycarbonyl-[Tle][Pro(3R,4S-CMe2)][X2]G[Phg]-NMe2), the Ki on NS3 came out at 16 nM. For the same compound, the Selectivity ratio in series [1] was found to be 81. Also, in the series on Hepatitis C virus, it took 350 nM to reach the 90% level (IC90).

Compound `CCCC(NC(=O)[C@@H]1[C@@H]2[C@H](CN1C(=O)[C@@H](NC(=O)OCC(C)C)C1CCCCC1)C2(C)C)C(=O)C(=O)NCC(=O)N[C@H](C(=O)N(C)C)c1ccccc1` (stereo partly drawn) (Isobutyloxycarbonyl-[Chg][Pro(3R,4S-CMe2)][X2]G[Phg]-NMe2) registered a Ki on NS3 of 10 nM. For the same compound, in [1], the Selectivity ratio is 4. Further, the 90% effect level in the series on Hepatitis C virus (IC90) was put at 200 nM.

For the compound `CCCC(NC(=O)[C@@H]1[C@H]2CC(C)(C)O[C@H]2CN1C(=O)[C@@H](NC(=O)OCC(C)C)C(C)(C)C)C(=O)C(=O)NCC(=O)N[C@H](C(=O)N(C)C)c1ccccc1` (some centres undefined), the Ki at NS3 is 10 nM. For the same compound, in the series on Hepatitis C virus, the 90% effect level (IC90) was put at 1800 nM.

As for `CN(C)C(=O)[C@@H](NC(=O)CNC(=O)C(=O)C(CCC(F)(F)F)NC(=O)[C@@H]1[C@@H]2[C@H](CN1C(=O)[C@@H](NC(=O)OC(C)(C)C)C(C)(C)C)C2(C)C)c1ccccc1` (stereo partly drawn) (Boc-[Tle][Pro(3R,4S-CMe2)][X4]G[Phg]-NMe2), at NS3, the Ki was 2 nM. The Selectivity ratio in [1] was 4600. Besides, the IC90 in the series on Hepatitis C virus is 400 nM.

On NS3, `CCCCC(NC(=O)[C@@H]1[C@@H]2[C@H](CN1C(=O)[C@@H](NC(=O)OC(C)(C)C)C(C)(C)C)C2(C)C)C(=O)C(=O)NCC(=O)N[C@H](C(=O)N(C)C)c1ccccc1` (stereo partly drawn) (Boc-[Tle][Pro(3R,4S-CMe2)][X3]G[Phg]-NMe2) gave a Ki of 10 nM. In [1], the Selectivity ratio amounted to 964. In the series with Hepatitis C virus, the concentration for an effect of 90% (IC90) amounted to 400 nM.

At NS3, `CCCC(NC(=O)[C@@H]1CCCN1C(=O)[C@@H](NC(=O)OCC(C)C)C1CCCCC1)C(=O)C(=O)NCC(=O)N[C@H](C(=O)N(C)C)c1ccccc1` (some centres undefined) (Isobutyloxycarbonyl-[Chg]P[X2]G[Phg]-NMe2) gave a Ki of 10000 nM.

As a reminder, the Cmax is the peak of the concentration-time curve. For orientation: clearance means the volume of plasma or blood freed of the substance per unit of time. By bioavailability is commonly meant the share of a dose that reaches the circulation, judged against a reference dose that is usually intravenous. What is called AUC is the area under the concentration-time curve, a measure of exposure. As usually defined, the half-life is the time needed for the level to fall by half in the phase considered. Regarding `CN(C)C(=O)[C@@H](NC(=O)CNC(=O)C(=O)C(CC1CC1)NC(=O)[C@@H]1[C@@H]2[C@H](CN1C(=O)[C@@H](NC(=O)OC(C)(C)C)C(C)(C)C)C2(C)C)c1ccccc1` (stereo partly drawn) (Boc-[Tle][Pro(3R,4S-CMe2)][X1]G[Phg]-NMe2), the Cmax in series [2] stood at 4370 nM; in [10], 1600 nM; in series [14], 30 nM; in series [15], 120 nM. The clearance worked out at 24 mL/min/kg in series [3] and 6.9 mL/min/kg in series [8]. At NS3, this compound registered a Ki of 3.8 nM. Also, the bioavailability is 100% in series [4], 4% in series [9], 1% in series [12] and 100% in [13]. Further, the AUC amounted to 3.4 µM·h in [5]; 4.7 µM·h in series [6]; 19.5 µM·h in series [7]; 0.35 µM·h in series [11]; 5.6 µM·h in series [16]; 0.03 µM·h in series [17]. In series [1], the Selectivity ratio was 1000. For the same compound, the IC90 in the series on Hepatitis C virus was determined as 100 nM. The half-life in [18] was 5.3 h; in [19] it was 5.2 h.

On to `CCCC(NC(=O)[C@@H]1CC(C)(C)CN1C(=O)[C@@H](NC(=O)OCC(C)C)C(C)(C)C)C(=O)C(=O)NCC(=O)N[C@H](C(=O)N(C)C)c1ccccc1` (some centres undefined) (Isobutyloxycarbonyl-[Tle][Pro(4,4-Me2)][X2]G[Phg]-NMe2), for which, at NS3, the Ki was determined as 36 nM.

Regarding `CCCC(NC(=O)[C@@H]1[C@H]2CC(C)(C)C[C@H]2CN1C(=O)[C@@H](NC(=O)OCC(C)C)C(C)(C)C)C(=O)C(=O)NCC(=O)N[C@H](C(=O)N(C)C)c1ccccc1` (some centres undefined), affinity on NS3 was put at a Ki of 15 nM. Moreover, the concentration for an effect of 90% (IC90) with Hepatitis C virus is 900 nM.

In turn, `CCCC(NC(=O)[C@@H]1[C@@H]2[C@H](CN1C(=O)[C@@H](NC(=O)OC(C)(C)C)C(C)(C)C)C2(C)C)C(=O)C(=O)NCC(=O)N[C@H](C(=O)N(C)C)c1ccccc1` (stereo partly drawn) (Boc-[Tle][Pro(3R,4S-CMe2)][X2]G[Phg]-NMe2) gave a Ki at NS3 of 14 nM. Also, the Selectivity ratio in series [1] is 147. This compound showed a 90% effect concentration (IC90) in the series with Hepatitis C virus of 250 nM.
